Test results from patent US20250186623A1, “EXPRESSION SYSTEM FOR THE TREATMENT OF CANCER” (FUNDACION PARA LA INVESTIGACION MEDICA APLICADA, priority 2022, published 2025).
Read-outs that look alike come from different tables or passages of the source.

Assays:
murine STING = target: T1, murine STING (Mus musculus, UniProt Q3TBT3); conditions: cited from earlier work
T1 sequence (Q3TBT3 1-378): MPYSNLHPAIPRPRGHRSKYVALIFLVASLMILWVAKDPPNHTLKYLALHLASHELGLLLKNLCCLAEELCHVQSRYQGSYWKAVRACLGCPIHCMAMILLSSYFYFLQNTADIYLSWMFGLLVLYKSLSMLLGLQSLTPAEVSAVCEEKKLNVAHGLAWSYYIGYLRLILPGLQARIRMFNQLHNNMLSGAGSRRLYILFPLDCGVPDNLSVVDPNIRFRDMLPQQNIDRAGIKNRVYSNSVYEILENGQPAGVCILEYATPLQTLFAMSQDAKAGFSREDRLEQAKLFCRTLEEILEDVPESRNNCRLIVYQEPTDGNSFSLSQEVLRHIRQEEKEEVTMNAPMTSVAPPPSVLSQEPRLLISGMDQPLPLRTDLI

hSTINGmut [1] = target: T2, hSTINGmut (Homo sapiens, UniProt Q86WV6, G230I/H232R/Q266I/S162A); test: DMXAA mediated expression of STING-derived cytokines (qPCR); format: cell-based; conditions: hSTINGmut-transduced MC38 and Hep2G cells; 50 μg/mL DMXAA, 3 h or 6 h
T2 construct: expressed in transfected cells
T2 sequence (Q86WV6 whole entry S162A/G230I/H232R/Q266I): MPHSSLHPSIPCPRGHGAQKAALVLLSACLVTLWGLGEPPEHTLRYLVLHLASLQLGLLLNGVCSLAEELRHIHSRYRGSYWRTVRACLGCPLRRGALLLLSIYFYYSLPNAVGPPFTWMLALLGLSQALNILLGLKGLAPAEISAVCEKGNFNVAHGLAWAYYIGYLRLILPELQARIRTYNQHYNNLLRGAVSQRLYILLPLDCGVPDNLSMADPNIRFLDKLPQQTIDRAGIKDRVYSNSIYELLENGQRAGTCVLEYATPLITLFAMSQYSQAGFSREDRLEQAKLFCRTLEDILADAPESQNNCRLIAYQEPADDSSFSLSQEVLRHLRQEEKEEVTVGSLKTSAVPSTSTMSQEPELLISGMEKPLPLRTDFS
Description: (§1) As a readout, the expression of STING-derived cytokines was measured by qPCR.
(§2) To this end, MC38 and Hep2G cells have been transduced with lentiviruses encoding luciferase, hSTINGwt, hSTINGmut to obtain stable cell lines as described above or were not transduced with any lentivirus (no vector). Respective cells were seeded in 24-well plates at a density of 750 cells/mm^2 in growth medium. […] Cells were harvested and prepared for qPCR measurements as described above. The expression of the cytokines IFN-β, TNF-α, IL-6, CXCL9 and CXCL10 were measured for either experimental group and expression levels relative to controls (no vector) were quantified.

hSTINGwt = target: T3, hSTINGwt (Homo sapiens, UniProt Q86WV6, H232R); test: as above; format: cell-based; conditions: other groups (hSTINGwt, luciferase, no vector); 50 μg/mL DMXAA
T3 construct: expressed in transfected cells
T3 sequence (Q86WV6 whole entry H232R): as the sequence (Q86WV6 whole entry S162A/G230I/H232R/Q266I) above, with A162S, I230G, I266Q counted along it
Description: as §1, §2

hSTINGmut [2] = target: T2, hSTINGmut; test: Time-course expression of STING-derived cytokines upon DMXAA treatment (qPCR); format: cell-based; conditions: MC38 and Hep2G cells encoding hSTINGmut; 50 μg/mL DMXAA; any given timepoint
Description: The objective of this experiment was to examine the time-course of STING-derived cytokine expression upon DMXAA treatment. As a readout, the expression of STING-derived cytokines was measured by qPCR.
To this end, stable cell lines of MC38 and Hep2G cells encoding hSTINGmut have been obtained as described above. […] Cells were harvested and prepared for qPCR measurements as described above.

[3] = test system: IFN-β protein levels in the serum
Description: C57 wild type mice, aged 6 to 10 weeks, were injected intravenously with an AAV8 vector encoding either hSTINGmut (AAV8-hSTINGmut, 1×10^11 viral genomes) or as a control GFP (AAV8-GFP, 1.5×10^11 viral genomes).

MC38 cells [4] = test: Synergism proof of principle I: IFN-β mRNA by qPCR; format: cell-based, murine; conditions: 8 Gy + DMXAA 50 μg/mL, without exogenic hSTINGmut
Description: To this end, MC38 cells received 8 Gy or 0 Gy as described above (example 7). Cells were seeded thereafter at 750 cells/mm^2 density and were then either mock-transduced or transduced with AAV8-hSTINGmut (1×10^5 viral genomes/cell). For cell transduction 8.5×10^9 viral genomes of AAV8-hSTINGmut from known concentration stock solutions, were resuspended in 50 μl RPMI 2% FBS. The resuspended viral particles were then added to the wells where the cells were seeded.

MC38 cells [5] = test: Synergism proof of principle II: IL-12 mRNA by qPCR; format: cell-based, murine; conditions: cells transduced with AAV8-hSTINGmut plus AAV8-ISREx4-IL12miR122T
Description: To this end, MC38 cells received 8 Gy or 0 Gy as described above and then were co-transduced with AAV8-hSTINGmut (1×10^5 viral genomes/cell) and AAV8-ISREx4-IL12miR122T (0.5×10^5 viral genomes/cell) as described above. For cell transduction, 8.5×10^9 viral genomes of AAV8-hSTINGmut and 4.25×10^9 viral genomes of AAV8-scIL12-miR122T, from known concentration stock solutions, were resuspended, each one, in 50 μl RPMI 2% FBS. The resuspended viral particles were then added to the wells where the cells were seeded. […] The IL-12 mRNA was determined by qPCR as described above (example 3) and expression levels were quantified in reference to non-transduced, non-irradiated cells treated with vehicle.

HEK293 cells = test: Synergism proof of principle III: IFN-β and IL-12 mRNA by qPCR; format: cell-based, human; conditions: for IFN-β expression levels: hSTINGmut expressing cells
Source text: To this end, HEK293 cells received 8 Gy or 0 Gy as described above for MC38 cells and then were co-transduced with AAV8-hSTINGmut (1×10^5 viral genomes), AAV8-ISREx4-IL12miR122T (1×10^5 viral genomes) and/or AAV-GFP (1×10^5 viral genomes) as indicated in the figure.

[6] = test system: native non-transduced MC38 cells; test: Synergism proof of principle IV: IFN-β protein by ELISA; format: cell-based, murine
Description: In addition to the previous experiments, the objective of the fourth experiment was to further investigate the observed synergism between the canonical and non-canonical STING.
To this end, native non-transduced MC38 cells received 0 Gy, 2 Gy or 8 Gy as described above. […] The IFN-p protein levels were determined by ELISA as described above.

MC38 tumors = test: Synergism of DMXAA and radiotherapy in a humanized mouse model in vivo, cytokine ELISA; parameters: species or system STING deficient C57 mice (STING KO); conditions: 6 h after DMXAA 20 mg/kg, irradiated tumors
human STING = human STING (Homo sapiens, UniProt Q86WV6); conditions: cited from earlier work
human STING, sequence (Q86WV6 whole entry H232R): as the sequence (Q86WV6 whole entry S162A/G230I/H232R/Q266I) above, with A162S, I230G, I266Q counted along it

[7] = human, in vivo; cited from earlier work
[8] = target: hSTING[R]-S162A/G230I/Q266I (Homo sapiens, UniProt Q86WV6, G230I/H232R/Q266I/S162A); conditions: cited from earlier work
hSTING[R]-S162A/G230I/Q266I, sequence (Q86WV6 whole entry S162A/G230I/H232R/Q266I): as the sequence (Q86WV6 whole entry S162A/G230I/H232R/Q266I) above

SMILES: O=C(O)Cc1cccc2c(=O)cc(-c3ccccc3)oc12 [FAA, flavone-8-acetic acid]
- activation of murine STING (murine STING): may also be activated

SMILES: Cc1ccc2c(=O)c3cccc(CC(=O)O)c3oc2c1C [DMXAA, 5,6-Dimethylxanthenone-4-acetic acid]
- expression of the cytokines IFN-β, TNF-α, IL-6, CXCL9 and CXCL10 (hSTINGmut [1]): elevated
- expression of the cytokines IFN-β, TNF-α, IL-6, CXCL9 and CXCL10 (hSTINGwt): no significant alteration
- expression of STING-derived cytokines over time (hSTINGmut [2]): increase in expression levels
- serum IFN-β levels in AAV8-GFP transduced control animals ([3]; 20 mg DMXAA/kg bodyweight i.p., after a first injection): elevation
- toxicity and mortality ([3]; 20 mg DMXAA/kg, AAV8-hSTINGmut and AAV8-GFP mice, systemic STING stimulation): high toxicity and mortality
- serum IFN-β levels in AAV8-hSTINGmut transduced mice ([3]; 5 or 10 mg DMXAA/kg bodyweight i.p.): very low levels
- toxicity and mortality ([3]; 5 or 10 mg DMXAA/kg, AAV8-hSTINGmut transduced mice): neither cause significant toxicity nor mortality
- IFN-β mRNA expression (MC38 cells [4]): increase in IFN-β expression
- IL-12 mRNA levels (MC38 cells [5]; 8 Gy): strong elevation
- IL-12 mRNA levels (MC38 cells [5]; non-irradiated): slight elevation
- IL-12 expression levels (HEK293 cells; ISREx4-IL12miR122T expressing cells, radiation plus further DMXAA treatment): significant increase
- IFN-β expression levels (HEK293 cells; DMXAA 50 μg/mL): upregulated
- IFN-β expression levels (HEK293 cells; DMXAA plus additional irradiation 8 Gy): significantly increased
- IFN-β production ([6]; 8 Gy plus DMXAA (different doses), 24 h or 48 h): exceeding the sum of those obtained with radiation alone and DMXAA alone
- IFN-β production after a single dose of radiation ([6]; 8 Gy, DMXAA 50 μg/mL 24 h later, collected after another 24 h): enhanced
- intratumor levels of IL-12 (MC38 tumors): increased significantly
- activation of human STING (human STING): unable to activate
- efficacy in clinical trials [7]: lack of efficacy
- tolerability in clinical trials [7]: well tolerated and only displayed minor side effects
- activation of hSTING[R]-S162A/G230I/Q266I [8]: highly activated
